The subject of one assay is mandarin oranges. Kind of assay: Citrus decay during storage at 2° C. The settings on record: Mandarin Orange. It is filed as in vivo. As to the method:
Approximately 1000 mandarin oranges were treated shortly after harvest with compositions comprising performic acid, water, or an Imazalil composition, and then stored at 2° C. After 22 days, the number of rotten fruits, and the percent decay were assessed. A second trial was conducted with ten tons of mandarin oranges treated with a performic acid composition or Imazalil and stored and then stored at 2° C. The study was repeated with Red Grapefruit. The compositions comprising performic acid and the manner of applying the compositions varied throughout the course of the study within the parameters summarized in Table 6.
The compositions were applied to the citrus at room temperature with a fine spray of the performic acid containing composition and then treated either a) with a drain wash of water (either cold or heated to 55° C.) with a 1:9 dilution in tap water of the composition without formic acid, orb) with a drain wash of water (either cold or heated to 55° C.), followed by a fine spray at room temperature with a formulation identical to the performic acid formulation but without formic acid. Thus, the methods of applying in this study were: • a. Application of the performic acid containing composition at room temperature with fine spray, then treatment with a drain wash of cold water, and then a fine spray at room temperature with a formula without formic acid (i.e. without the performic acid source) • b. Application of the performic acid containing composition at room temperature with fine spray, then treatment with a drain wash of heated water (to about 55° C.), and then a fine spray at room temperature with a formula without formic acid • c. Application of the performic acid containing composition at room temperature with fine spray and then treatment with a drain wash of cold water that contained the formula at a diluted state at a ratio of 1:9 but without formic acid • d. Application of the performic acid containing composition at room temperature with fine spray and then treatment with a drain wash of heated water (to about 55° C.) that contained the formula at a diluted state at a ratio of 1:9 but without formic acid
All treatments were conducted at a total rate of 5-20 liter of formula per ton of different Citrus varieties.

Assay [1] relates to Aspergillus niger (ATCC 16404). In words: BS EN 1650:1998 quantitative suspension test, fungicidal activity. To be noted: 300 ppm; same test conditions (1 minute, 20° C., dirty conditions). It is filed as cell-based. As to the method: (§1) This is a quantitative suspension test to evaluate the activity of chemical disinfectants and antiseptics used in food, industrial, domestic and institutional areas against fungi, yeasts and molds. The same composition tested in Example 22 was tested in this case as well.
(§2) As is known in the art, EN 1650 specifies a test method and the minimum requirements for anti-fungal, anti-yeast and anti-mold activity of chemical disinfectant and antiseptic products that form a homogeneous, physically stable preparation in hard water and that are used in food, industrial, domestic and institutional areas, excluding areas and situations where disinfection is medically indicated and excluding products used on living tissues except those for hand hygiene in the above-considered areas. […]
(§3) A test suspension of yeast cells and/or mold spores in a solution of interfering substance (bovine albumin, 3 g/l) was added to a prepared sample of the product under test diluted in hard water. […] (If a suitable neutralizer could be found, membrane filtration was used.) The number of surviving fungi, yeast cells or mold spores in each sample was determined and the reduction in viable counts was calculated. […]

Assay [2] relates to Penecillium w.t. (wild type). Described as above. It is filed as cell-based. The settings on record: 300 ppm; same test conditions (1 minute, 20° C., dirty conditions). Here is the method: as §1, §2, §3

For `C=CCOC(Cn1ccnc1)c1ccc(Cl)cc1Cl` (stereo not drawn) [Imazalil], in the assay with mandarin oranges (22 days after treatment), the “% Decay” value is recorded as 6.8% and the “No. Rotten Fruits” value is 59. In the assay with mandarin oranges (46 days after treatment), the “% Decay” value came to 1.75% and the “No. Rotten Fruits” value came to 125.
Turning to `CC(=O)OO` [peracetic acid], the “compliance with EN 1650” value in assay [1] and in assay [2] was “did not meet the standard” each time.

The values are drawn from patent publication US10212956B2, “Compositions and methods of treating edible matter and substrates therefor” (PIMI AGRO CLEANTECH LTD., priority 2010, dated 2019).
